Results taken from patent US12012415B2, “Compositions and methods for the diagnosis, treatment and prevention of neoplastic and neurological disorders” (AscentGene, Inc., priority 2018, dated 2024).

Assays:
[1] = tested on: NR2A, NR2B, PSD-95 and SYP; experiment: Western blot of synaptic proteins in hippocampal fractions, Aβ1-42 AD rat model; type: in vivo, rats
Method: Aβ1-42 (Sigma-Aldrich, St. Louis, MO, USA;) was dissolved in double-distilled water at the concentration of 5 μg/μl, and incubated at 37° C. for one week before surgery. The rats were randomly divided into four groups as Sham (n=8), Sham+AG-1601 (n=8), Aβ1-42 (n=8) and Aβ1-42+AG-1601 (n=8). The Alzheimer's disease rat models were established by intracerebroventricular (i.c.v.) injection of Aβ1-42 aggregates. The animals were anesthetized with intraperitoneal injection of pentobarbital sodium (50 mg/kg) and placed in a stereotaxic apparatus (Narishige, Japan). The head skin of the rat was opened and two small holes were drilled on both sides of skull following the coordinates: 0.8 mm posterior to bregma, +1.4 mm lateral to sagittal suture, 4.0 mm beneath the surface of brain. Aβ1-42 (2.0 μl per side) was injected bilaterally into the lateral ventricles through micro-syringe. The needle was taken out after 5 minutes of the injection to ensure the aggregates were infused completely. Rats in the Sham group underwent the same operational process, but same volumes of double-distilled water were injected instead of Aβ1-42. After surgery, all rats were injected with penicillin (100,000 U) in the hindquarter muscle to prevent infection. The animals of Sham+AG-1601 and Aβ1-42+AG-1601 groups were intravenous injection with AG-1601 (1 mg/kg), while the same volume vehicle was implemented for the other groups every day for 14 days after one week of the postoperative recovery.
Three rats of each group were randomly selected to be sacrificed and their hippocampal tissues were immediately removed at 0° C. and stored at minus 80° C. For subcellular fractionation, 100- to 200-mg weight rat hippocampal tissue was used. The procedure has been described (Yang et al., 2017). The tissues were homogenized for 30 s in 500 μl TEVP buffer containing 320 mM sucrose and the homogenate was obtained. The homogenate (H) was centrifuged at 900×g for 10 min at 4° C., and the supernatant (S1) was centrifuged for 20 min at 10000×g at 4° C. to obtain the cytosolic/light membrane fraction (S2) and the crude synaptosomal fraction pellet (P2). The pellet was resuspended in TEVP buffer containing 35.6 mM sucrose solution and then centrifuged at 25,000×g for 20 min at 4° C. The supernatant was stored at minus 80° C. and referred as the synaptic vesicular fraction (LS1). The pellet, synaptic plasma membranes (LP1), was resuspended in TEVP buffer containing 1% Triton X-100 and centrifuged at 330,000×g for 30 min at 4° C. The supernatant referred as Triton X-100-soluble fraction (TSF) was stored at minus 80° C. The final pellet, the Triton X-100-insoluble fraction (TIF), was homogenized in TEVP buffer containing 1% SDS.
The concentration of every component was measured by the BCA protein assay kit (Beyotime Biotechnology, China). The components were finally boiled with 4× loading buffer at 100° C. for 15 min and stored at minus 80° C. for Western blot assay.
The total homogenate (H) and synaptosomal fractions were analyzed. Equal amounts of 20 μg from each sample were separated via 10% or 13% SDS-PAGE gels and subsequently transferred onto PVDF membranes (Millipore, USA). The membranes were blocked with 5% nonfat dry milk for 1 h at room temperature and then incubated with primary antibodies (Anti-synaptophysin, 1: 1000, Abcam; Anti-NR 2A, 1: 2000, Abcam; Anti-NR 2B, 1: 2000, Abcam; Anti-PSD-95, 1: 2000, Abcam; Anti-CREB, 1: 2000,Abcam; Anti-CREB phosphorylation, 1: 2000, Abcam; Anti-SIRT1, 1: 2000, Santa Cruz Biotechnology; Anti-β-actin, 1:5000, Santa Cruz Biotechnology) overnight at 4° C. Membranes were then incubated for 1 h at room temperature with horseradish peroxidase-conjugated secondary antibodies (Promega). After washing with TBST buffer, signals were visualized with the HRP substrate (Millipore, USA) and detected with a chemiluminescence kit (Tanon 5500, Tanon Science & Technology, China). The gray-scale value of protein band was quantified by NIH Image J program. […]

[2] = tested on: SF295 xenograft tumor; experiment: SF295 GBM xenograft mice model; type: in vivo; conditions: 150 μg/mice IP every other day, 28 days
Method: Female SHO mice (Crl:SHO-Prkdescid Hr/6-8 weeks) were purchased from Charles River. Human glioblastoma cell line SF295 cells were injected subcutaneously on the right flank of 8 week female SHO mice (3×10^6/per mice), tumor appears around one week (day 7) post inoculation. When the tumor size reaches the volume of 100 mm^3, total 12 mice were randomly divided to two groups (Treatment & Vehicle). 100 μl of 1.5 μg/μl of AG-1601 (total 150 μg/mice) was injected via IP to each mouse in the Treatment Group every other day for total 28 days; the same volume of H2O was injected to the mouse in the Vehicle Group. Tumor size measurement was evaluated using the digital calipers and tumor size was calculated using the following formula [mm^3=((L+W)/4)×((L+W)/4)×((L+W)/4)×4/3×3.14159], data are platted as relative mean tumor volume+/−standard error of the mean.

[3] = tested on: Rat glioblastoma cell lines C6; experiment: Cell growth of glioblastoma cell line C6; type: cell-based; conditions: cell growth rate from number of live cells
Method: Rat glioblastoma cell lines C6 (A) and human non-small cell lung cancer cell line H841 (B) were grown in the proper medium and treated with different concentration of drug candidate AG-1031 (P) and AG-1503 (#3). Cell growth rate was calculated based on the number of live cells as compared to concentration in M of selected small molecules of the invention (see FIGS. 6A and 6B).

[4] = total homogenate (H), vs Aβ1-42 group

Q: What does the source list for `C=CC1=C(C)c2cc3[nH]c(cc4nc(cc5[nH]c(cc1n2)c(C)c5C=C)C(C)=C4CCC(=O)O)c(CCC(=O)NCCCc1ccccc1)c3C` [AG-1601, 3-(2,8,13,18-tetramethyl-3-(3-oxo-3-((3-phenylpropyl)amino)propyl)-12,17-divinylporphyrin-7-yl)propanoic acid]?
A: NR2A level ([1]; TIF fraction, vs Aβ1-42 group): increased; NR2B level ([1]; TIF fraction, vs Aβ1-42 group): increased; PSD-95 level ([1]; TIF fraction, vs Aβ1-42 group): increased; SYP level ([1]; TSF fraction, vs Aβ1-42 group): also increased; SYP expression ([1]; homogenates of hippocampal tissues, vs Aβ42 group): this effect was overcome; NR2A level [1, 4]: increased; NR2B level [1, 4]: increased; PSD-95 level [1, 4]: this effect was overcome; PSD-95 level ([1]; total homogenate (H), vs Aβ1-42 group, listed as AG-1061): increased; efficacy on SF295 xenograft tumor [2]: shows efficacy; inhibition of growth of glioma cell line C6 [3]: even better inhibitory activity on growth of glioma cells compared to AG-1503
